Here are results for three molecules from patent US20140271634A1, “COMBINATIONS OF A MEK INHIBITOR COMPOUND WITH AN HER3/EGFR INHIBITOR COMPOUND AND METHODS OF USE” (The Regents of the University of California, priority 2013, published 2014).

One assay relates to HCT115 (KRAS^G13D). Nature of the assay: Proliferation, HCT115 cells. Format: cell-based.
A further assay has as its system A375 (BRAF^V600E). Nature of the assay: Proliferation, A375 cells. Format: cell-based.
For assay [1], the system named is tumor cells bearing activating Ras mutations. Nature of the assay: Growth of tumor cells bearing activating Ras mutations. Format: cell-based. The settings on record: FIG. 6. From the text:
(§1) In one embodiment, the MEK inhibitor of the combination therapy is either GDC-0973 or GDC-0623. […] FIG. 5. […] FIG. 6.

Assay [2] has as its system BxPC3 Ductal Pancreatic Xenograft Tumors. Nature of the assay: Pancreatic BxPC3 xenograft combination study (Example 8). In kind it is in vivo, mice. From the text:
(§2) To appropriately analyze the repeated measurement of tumor volumes from the same animals over time, a mixed-modeling approach was used (Pinheiro et al. 2009). This approach addressed both repeated measurements and modest drop-out rates due to non-treatment-related termination of animals before study end. This analysis was used to determine tumor growth inhibition as a percentage of vehicle (% TGI) or time to tumor progression (TTP).
After randomization, mice were given PO gavage doses of 0 (vehicle), 1, or 5 mg/kg cobimetinib (expressed as free-base equivalents) QD for 21 days. Mice were given 25 mg/kg of MEHD7945A via IV bolus injection QW for a total of three injections. In groups that received both agents, cobimetinib was administered first and immediately followed by MEHD7945A.
Time to tumor progression (TTP) to twice (2×) initial tumor volume was monitored for each group following 21 days of dosing (see FIG. 13C). […] In FIG. 13 CI=confidence interval; CR=complete response (100% decrease in tumor volume); HB#8=histidine buffer; MCT=0.5% (w/v) methylcellulose, 0.2% (w/v) polysorbate 80; NA=not achieved; PR=partial response (50-99% decrease in tumor volume); TTP=time to tumor progression to twice (2×) or five times (5×) the initial tumor volume represents the group average in days.

The subject of assay [3] is KRAS-Mutant DLD-1 Colorectal Adenocarcinoma Tumor Xenografts. Nature of the assay: DLD-1 colorectal xenograft combination study (Example 7). Format: in vivo, mice. As for the experimental part: (§3) A combination study of MEHD7945A and cobimetinib was conducted in the KRAS-mutant colorectal xenograft models LS180 and DLD-1. Both of these models were selected because of their KRAS-mutant status and their EGFR and HER3 expression. Cobimetinib was administered as an aqueous solution orally at […] once daily for 21 days. MEHD7945A was administered IV once a week until Day 21 was reached. Tumor sizes and body weights were recorded twice weekly over the course of the study. Mice were promptly euthanized when tumor volume exceeded 2000 mm3 or if body weight loss was 20% of their starting weight.
as §2
After randomization, DLD-1 tumor bearing mice were given PO gavage doses of 0 (vehicle), 3, or 10 mg/kg cobimetinib (expressed as free-base equivalents) QD for 21 days. Mice received 25 mg/kg of MEHD7945A via IV bolus injection QW for a total of three injections. In groups that received both agents, cobimetinib was administered first and immediately followed by MEHD7945A.

For assay [4], the system named is LS180 Colorectal Adenocarcinoma Tumor Xenografts. Nature of the assay: LS180 colorectal xenograft combination study (Example 7). In kind it is in vivo, mice. As for the experimental part:
as §3, §2
After randomization, LS180 tumor bearing mice were given oral (PO) gavage doses of 0 (vehicle), 3, or 10 mg/kg cobimetinib (expressed as free-base equivalents) once a day (QD) for 21 days. Mice were given 25 mg/kg of MEHD7945A via intravenous (IV) bolus injection once per week (QW) for a total of three injections. In groups that received both agents, cobimetinib was administered first and immediately followed by MEHD7945A.

In a further assay the test system is DLD-1 cells. Nature of the assay: TGFα-stimulated DLD-1 cells, immunoblot of pAKT and pERK1/2. Format: cell-based. The settings on record: 10 μg/mL MEHD7945A, 0.025 μM cobimetinib or combination 1 hour before 5 nM TGFα 12 minutes. From the text:
(§4) Inhibition of the RAS/RAF/MEK and the PI3K/AKT pathways were explored in vitro using MEHD7945A and cobimetinib or the combination of both agents in KRAS-mutant colorectal cell lines. Two KRAS mutant colorectal cell lines were selected to assess the potential upregulation of phosphorylated AKT (pAKT) by cobimetinib due to the inhibition of negative feedback loops. Upregulation of pAKT upon MEK inhibition has been described in several cell systems (Mirzoeva et al. 2009; Diep et al 2011; Turke et al. 2012). Moreover, we investigated if the addition of MEHD7945A to cobimetinib treatment could enhance pAKT and pERK1/2 inhibition. LS180 cells were pretreated with 10 μg/mL MEHD7945A, 0.05 μM cobimetinib, or the combination thereof for one hour before stimulation with 5 nM TGFα for twelve minutes. DLD-1 cells were pretreated with 10 μg/mL MEHD7945A, 0.025 μM cobimetinib, or the combination thereof for 1 hour before stimulation with 5 nM TGFα for 12 minutes. Cell lysates were immunoblotted to detect phosphorylation of EGFR (pEGFR1068), phosphorylation of AKT (pAKTS473), and phosphorylation of ERK1/2 (pERK1/2 T202/Y204), and total protein levels of EGFR, AKT, or ERK1/2. The results are shown in FIG. 9 (left panel=LS180 cells, right panel=DLD-1 cells) (EGFR=epidermal growth factor receptor; ERK=extracellular signal regulated kinase; p=phosphorylated; TGFα=transforming growth factor α) […]
Background: Immunoblotting shows a protein as a band on a membrane.

In assay [5] the test system is tumor cells bearing activating B-RAF mutations. Nature of the assay: Growth of tumor cells bearing activating B-RAF mutations. The settings on record: FIG. 5. In kind it is cell-based.
Excerpt: as §1

The next assay concerns LS180 cells. Nature of the assay: TGFα-stimulated LS180 cells, immunoblot of pAKT and pERK1/2. In kind it is cell-based. The settings on record: 10 μg/mL MEHD7945A, 0.05 μM cobimetinib or combination 1 hour before 5 nM TGFα 12 minutes.
Excerpt: as §4

Another assay relates to ERK1/2 and AKT pathways. The settings on record: A431 and BxPC3 cells.
Assay [6] relates to pERK1/2 (Thr202/Tyr204). The settings on record: EGFR-NR6 cells, 1 hr pretreatment, 5 nM TGF-a for 10 min. As for the experimental part:
The assays were performed as follows. MCF-7 cells treated with indicated concentrations of MEHD7945A or anti-HER3 were stimulated with 0.5 nM NRG for 10 min. Cell lysates were immunoblotted to detect pHER3 (Tyr1289), pAKT (Ser473), pERK1/2 (Thr202/Tyr204), and total HER3. FIG. 2A. […] Cell lysates were subjected to immunoblotting to detect, pERK1/2 (Thr202/Tyr204), total EGFR, and phosphorylated EGFR. Since EGFR-NR6 cells only express EGFR all potential phosphorylation sites of EGFR were detected using a pTyr antibody.

In assay [7] the test system is pERK1/2 (Thr202/Tyr204). As to the kind of experiment: NRG-stimulated MCF-7 cells, immunoblot of pERK1/2. Format: cell-based. The settings on record: 0.5 nM NRG for 10 min. As for the experimental part:
(§5) The assays were performed as follows. […] FIG. 2A.

The next assay relates to FaDu cells. Nature of the assay: FaDu xenograft, head and neck squamous cell carcinoma model. Format: in vivo. The settings on record: FaDu tumors in CB17 SCID mice, 25 mg/kg intraperitoneally weekly, 2× loading dose, four treatments. As for the experimental part: MEHD7945A, a commercially available anti-EGFR antibody, and an anti-HER3 antibody were tested in mice with established tumors derived from Fadu cells (ATCC HTB-43, Manassas, Va.) 5×10^6 FaDu cells were inoculated subcutaneously in CB17 SCID mice. Animals with similarly sized tumors were randomized into treatment cohorts (n=9/group) as follows: Vehicle (MEHD7945A formulation buffer), anti-EGFR antibody (25 mg/kg), anti-HER3 antibody (50 mg/kg), and MEHD7945A (25 mg/kg). Treatments were administered intraperitoneally, beginning with a 2× loading dose (50 or 100 mg/kg respectively) on the day of randomization and continuing weekly for a total of four treatments.

Assay [8] deals with T1, EGFR (Homo sapiens, UniProt P00533). As to conditions: cited from earlier work.
A further assay has as its system pAKT (Ser473). As to the kind of experiment: NRG-stimulated MCF-7 cells, immunoblot of pAKT. The settings on record: 0.5 nM NRG for 10 min. Format: cell-based. As for the experimental part: as §5
A further assay has as its target T2, pHER3 (Tyr1289) (Homo sapiens, UniProt P21860).
T2 construct: endogenous in cells; host or cells: MCF-7
Nature of the assay: NRG-stimulated MCF-7 cells, immunoblot of pHER3. Format: cell-based. As to conditions: 0.5 nM NRG for 10 min. As for the experimental part: as §5

The target in assay [9] is T1, EGFR. Nature of the assay: Betacellulin- and amphiregulin-induced EGFR phosphorylation. Format: cell-based.
A further assay has as its target T3, phosphorylated EGFR (Homo sapiens, UniProt P00533).
T3 construct: expressed in transfected cells; host or cells: EGFR-NR6
As to the kind of experiment: TGF-a-stimulated EGFR-NR6 cells, immunoblot of phosphorylated EGFR. In kind it is cell-based. The settings on record: 1 hr pretreatment, 5 nM TGF-a for 10 min.

The target of another assay is HER3-ECD (Homo sapiens, UniProt P21860). The settings on record: soluble competitor 0.02-20 μg/ml.
[10] abbreviates: cobimetinib 3 mg/kg PO QD 21 days.
Setting [11] is: cobimetinib 10 mg/kg PO QD 21 days.
[12] abbreviates: MEHD7945A 25 mg/kg IV QW, three injections.

Where two headings read alike, the source gives them in different places.

Description for phosphorylated EGFR: The assays were performed as follows. […] Cell lysates were subjected to immunoblotting to detect, pERK1/2 (Thr202/Tyr204), total EGFR, and phosphorylated EGFR. Since EGFR-NR6 cells only express EGFR all potential phosphorylation sites of EGFR were detected using a pTyr antibody.

On to `O=C(NOCCO)c1ccc2cncn2c1Nc1ccc(I)cc1F` [GDC-0623], for which the concentration giving a half-maximal response (EC50) (in general, the concentration at which the effect is half-maximal) in the assay with HCT115 (KRAS^G13D) is 42 nM; in the assay on A375 (BRAF^V600E), 7 nM. In addition, in assay [1], the “inhibiting the growth of tumor cells bearing activating Ras mutations” value is given as “more activity”.
Consider `O=C(c1ccc(F)c(F)c1Nc1ccc(I)cc1F)N1CC(O)([C@@H]2CCCCN2)C1` [GDC-0973, cobimetinib], for which the EC50 turned out to be 520 nM in the assay on HCT115 (KRAS^G13D) and 5 nM with A375 (BRAF^V600E). Moreover, the “TTP 2× (time to tumor progression to twice initial tumor volume)” value in assay [2] (cobimetinib 1 mg/kg) came out at 22 days; in assay [2] (cobimetinib 5 mg/kg), 33 days. Further, the TGI was determined as 88% in [2] (cobimetinib 1 mg/kg PO QD 21 days); 109% in assay [2] (cobimetinib 5 mg/kg PO QD 21 days); 39% in assay [3] (setting [10]); 62% in [3] (setting [11]); 28% in assay [4] (setting [10]); 63% in assay [4] (setting [11]). The “phosphorylation of AKT (pAKTS473)” value in the assay with DLD-1 cells and with LS180 cells was “increased phosphorylation of AKT” in each case. For the same molecule, the “phosphorylation of ERK1/2 (pERK1/2 T202/Y204)” value in the assay on DLD-1 cells and in the assay with LS180 cells was “partial inhibition” throughout. The “inhibiting the growth of tumor cells bearing activating B-RAF mutations” value in [5] is “more activity”.

B1: MEHD7945A: dual-action antibody which comprises two identical antigen binding domains, each of which specifically binds to both HER3 and EGFR (antibody, V domains shown)
VH: EVQLVESGGGLVQPGGSLRLSCAASGFTLSGDWIHWVRQAPGKGLEWVGEISAAGGYTDYADSVKGRFTISADTSKNTAYLQMNSLRAEDTAVYYCARESRVSFEAAMDYWGQGTLVTVSS
VL: DIQMTQSPSSLSASVGDRVTITCRASQNIATDVAWYQQKPGKAPKLLIYSASFLYSGVPSRFSGSGSGTDFTLTISSLQPEDFATYYCQQSEPEPYTFGQGTKVEIKR
Take B1: the “inhibition of ERK1/2 and AKT pathways” value in the assay with ERK1/2 and AKT pathways was “as potently as the combination of anti-HER3 and cetuximab”. Moreover, the “IC50, phosphorylation of ERK1/2” value with pERK1/2 (Thr202/Tyr204) [6] is 0.16 µg/mL; with pERK1/2 (Thr202/Tyr204) [7], 1.13 µg/mL. The “TTP 2× (time to tumor progression to twice initial tumor volume)” value in [2] (MEHD7945A 25 mg/kg) came to 39.5 days. The TGI in assay [2] (setting [12]) was determined as 107%; in assay [3] (setting [12]) it was 62%; in assay [4] (setting [12]), 44%. Moreover, the “inhibition of tumor growth” value with FaDu cells is “more effective in inhibiting tumor growth than either an anti-EGFR specific or an anti-HER3 specific antibody”. Besides, the Kd (in general, the free concentration of one partner at which half of the binding sites on the other are occupied at equilibrium, for simple one-to-one binding) with EGFR [8] is ~1.9 nM. Besides, the “IC50, phosphorylation of AKT” value in the assay on pAKT (Ser473) was found to be 0.19 µg/mL. For the same molecule, the “IC50, phosphorylation of HER3” value in the assay with pHER3 (Tyr1289) came out at 0.05 µg/mL. The “betacellulin- and amphiregulin-induced EGFR phosphorylation” value in the assay with EGFR [9] is reported as “inhibited”. In addition, the “IC50, phosphorylation of EGFR” value with phosphorylated EGFR came to 0.03 µg/mL. The “binding to immobilized HER3-ECD with increasing amounts of EGFR-ECD” value with HER3-ECD is reported as “reduced in a dose-dependent manner”.
